From US10316017B2, “COT modulators and methods of use thereof” (Gilead Sciences, Inc., priority 2015, dated 2019) come the findings set out here.

T1 sequence (P41279 30-397): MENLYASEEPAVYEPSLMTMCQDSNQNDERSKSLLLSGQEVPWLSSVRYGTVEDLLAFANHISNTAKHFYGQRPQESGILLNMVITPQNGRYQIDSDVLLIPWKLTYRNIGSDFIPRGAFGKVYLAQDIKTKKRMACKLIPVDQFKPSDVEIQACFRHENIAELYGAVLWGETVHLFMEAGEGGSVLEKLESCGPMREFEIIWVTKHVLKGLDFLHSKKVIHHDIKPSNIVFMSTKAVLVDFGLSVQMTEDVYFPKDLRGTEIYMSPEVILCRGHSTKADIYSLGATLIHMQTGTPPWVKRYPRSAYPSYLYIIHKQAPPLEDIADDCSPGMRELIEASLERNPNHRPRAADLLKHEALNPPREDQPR

The experiment has as its target T1, human Cot catalytic domain (30-397 amino acids) (Homo sapiens, UniProt P41279).
T1 construct: Purified recombinant human Cot catalytic domain (30-397 amino acids) was purchased from Cama Biosciences; purchased Cama Biosciences (so in the source)
The experiment in a line: High Throughput Cot Biochemical Assay (KinEASE TR-FRET). To be noted: Cot KinEASE TR-FRET, 400 μM ATP; read-out: IC50 HTRF. The method, then:
Example 61: High Throughput Cot Biochemical Assay
In this assay, Cot-catalyzes the phosphorylation of a XL665-labeled peptide substrate. Europium conjugated phospho-tyrosine specific antibody binds the resulting phosphorylated peptide. […] Purified recombinant human Cot catalytic domain (30-397 amino acids) was purchased from Cama Biosciences. […] The standard 5 μL reaction mixture contained 400 μM ATP, 1 μM STK3 peptide, 5 nM of Cot in reaction buffer (10 mM MOPS, pH 7.0, 0.02% NaN3, 0.5 mg/mL BSA, 10 mM MgOAc, 1 mM DTT, 0.025% NP-40, 1.5% glycerol) and 0.1% DMSO.
As usually defined, the IC50 is the concentration at which inhibition is half-maximal. Regarding `CC(C)(C)N1CCC(n2cc([C@@H](Nc3cc(Cl)c4ncc(C#N)c(Nc5ccc(F)c(F)c5)c4c3)c3ccc(Cl)cc3)nn2)CC1` [Example 732, (S)-6-(((1-(1-(tert-butyl)piperidin-4-yl)-1H-1,2,3-triazol-4-yl)(4-chlorophenyl)methyl)amino)-8-chloro-4-((3,4-difluorophenyl)amino)quinoline-3-carbonitrile], the IC50 came out at 30 nM.

With `CCN1CC(n2cc(C(Nc3cc(Cl)c4ncc(C#N)c(Nc5ccc(F)c(Cl)c5)c4c3)c3ccc(Cl)cc3)nn2)C1` (stereo not shown) [Example 871, 8-chloro-4-((3-chloro-4-fluorophenyl)amino)-6-(((4-chlorophenyl)(1-(1-ethylazetidin-3-yl)-1H-1,2,3-triazol-4-yl)methyl)amino)quinoline-3-carbonitrile], the IC50 came to 90 nM.

On to `CCN1CCC(n2cc(C(Nc3cc(Cl)c4ncc(C#N)c(Nc5ccc(F)c(Cl)c5)c4c3)c3ccc(F)cc3)nn2)CC1` (stereo not shown) [Example 908, 8-chloro-4-((3-chloro-4-fluorophenyl)amino)-6-(((1-(1-ethylpiperidin-4-yl)-1H-1,2,3-triazol-4-yl)(4-fluorophenyl)methyl)amino) quinoline-3-carbonitrile], for which the IC50 came out at 5 nM.

Turning to `N#Cc1cnc2c(Cl)cc(NC(c3ccccc3)c3cn(C4CCNCC4)nn3)cc2c1Nc1ccc(F)c(Cl)c1` (stereo not shown) [Example 921, 8-chloro-4-((3-chloro-4-fluorophenyl)amino)-6-((phenyl (1-(piperidin-4-yl)-1H-1,2,3-triazol-4-yl)methyl)amino)quinoline-3-carbonitrile], the IC50 was determined as 8 nM.

Consider `N#Cc1cnc2c(Cl)cc(N[C@@H](c3ccc(F)cc3)c3cn(C4CCNCC4)nn3)cc2c1Nc1ccc(F)c(Cl)c1` [Example 851, (S)-8-chloro-4-((3-chloro-4-fluorophenyl)amino)-6-(((4-fluorophenyl)(1-(piperidin-4-yl)-1H-1,2,3-triazol-4-yl)methyl)amino)quinoline-3-carbonitrile], for which the IC50 is 7 nM.

In the case of `N#Cc1cnc2c(Cl)cc(N[C@@H](c3ccc(F)cc3)c3cn(C4CCN(C5CC(F)(F)C5)CC4)nn3)cc2c1Nc1ccc(F)c(Cl)c1` [Example 822, (S)-8-chloro-4-((3-chloro-4-fluorophenyl)amino)-6-(((1-(1-(3,3-difluorocyclobutyl)piperidin-4-yl)-1H-1,2,3-triazol-4-yl)(4-fluorophenyl)methyl)amino) quinoline-3-carbonitrile], the IC50 is 90 nM.

Consider `N#Cc1cnc2c(Cl)cc(NC(c3ccc(Cl)c(Cl)c3)c3cn(C4CCNCC4)nn3)cc2c1Nc1ccc(F)c(Cl)c1` (stereo not shown) [Example 910, 8-chloro-4-((3-chloro-4-fluorophenyl)amino)-6-(((3,4-dichlorophenyl)(1-(piperidin-4-yl)-1H-1,2,3-triazol-4-yl)methyl)amino)quinoline-3-carbonitrile], for which the IC50 stood at 52 nM.

Take `N#Cc1cnc2ccc(NC(c3ccc(F)cc3)c3cn(C4CCN(C(=O)OCc5ccccc5)CC4)nn3)cc2c1Nc1ccc(F)c(Cl)c1` (stereo not shown) [Example 834, benzyl 4-(4-(((4-((3-chloro-4-fluorophenyl)amino)-3-cyanoquinolin-6-yl)amino)(4-fluorophenyl)methyl)-1H-1,2,3-triazol-1-yl)piperidine-1-carboxylate]: the IC50 is 756 nM.

On to `CN1CCC(n2cc([C@@H](Nc3cc(Cl)c4ncc(C#N)c(Nc5ccc(F)c(Cl)c5)c4c3)c3ccc(F)cc3)nn2)CC1` [Example 826, (S)-8-chloro-4-((3-chloro-4-fluorophenyl)amino)-6-(((4-fluorophenyl)(1-(1-methylpiperidin-4-yl)-1H-1,2,3-triazol-4-yl)methyl)amino)quinoline-3-carbonitrile], for which the IC50 was 6 nM.

For the molecule `CC(C)(C)N1CCC(n2cc([C@@H](Nc3cc(Cl)c4ncc(C#N)c(Nc5ccc(F)c(Br)c5)c4c3)c3ccc(Cl)cc3)nn2)CC1` [Example 763, (S)-4-((3-bromo-4-fluorophenyl)amino)-6-(((1-(1-(tert-butyl)piperidin-4-yl)-1H-1,2,3-triazol-4-yl)(4-chlorophenyl)methyl)amino)-8-chloroquinoline-3-carbonitrile], the IC50 was 23 nM.
